This is an account of results in publication PMC7226045, “Ensartinib (X-396) Effectively Modulates Pharmacokinetic Resistance Mediated by ABCB1 and ABCG2 Drug Efflux Transporters and CYP3A4 Biotransformation Enzyme” (Cancers, 2020).

Series [1] concerns HL60-ABCC1 cells. Put plainly: XTT proliferation assay, HL60-ABCC1. Type of series: cell-based. To be noted: Homo sapiens, 48 h, read-out: IC50, sensitivity to ensartinib.
Protocol: The MTT method is not readily adapted for use with suspension cell cultures, therefore the XTT assay was used to assess the proliferation of HL60 cells. Briefly, HL60-par, HL60-ABCB1, HL60-ABCG2, and HL60-ABCC1 cells were seeded at 2 × 10^4 cells/well in 96-well culture plates. Immediately after seeding, dilutions of the tested drugs or drug combinations were added to the cells. The plates were then incubated under standard conditions (37 °C, 5% CO2) for 48 h, after which XTT solution in PBS (1 mg/mL) and phenazine methosulfate (7.50 µg/mL) were added to the cells and the plates were incubated for another 5 h. Finally, the cells’ absorbance was measured at 450 nm using a microplate reader (Infinite M200, Tecan, Salzburg, Austria). This method was used to assess the effect of ABC transporters on sensitivity to ensartinib and in drug combination assays.
In series [2] the target is T1, ABCC1 (Homo sapiens, UniProt P33527).
T1 construct: expressed in transfected cells; host or cells: MDCKII-ABCC1 (from Dr. Alfred Schinkel, The Netherlands Cancer Institute)
In words: daunorubicin accumulation assay (flow cytometry) in MDCKII-ABCC1 cells. Format: cell-based. To be noted: 2 µM daunorubicin, 1 h, read-out: IC50, inhibition of daunorubicin efflux by ABCC1. Here is the method: The flow-cytometric inhibitory assay with daunorubicin and mitoxantrone was performed with minor modifications as described previously. MDCKII-par, MDCKII-ABCB1, MDCKII-ABCG2, and MDCKII-ABCC1 cell lines were seeded at densities of 22.0 × 10^4, 15.0 × 10^4, 25.0 × 10^4, and 22.0 × 10^4 cells/well, respectively, on a 12-well plate and then incubated for 24 h to reach approximately 70–80% confluence. Further steps including cell washing, the preparation of drug/model inhibitor dilutions, and their addition to cells were performed as described above. After the 10 min pre-incubation period, 2 µM daunorubicin (a substrate of ABCB1/ABCC1) or 1 µM mitoxantrone (ABCG2 substrate) were promptly added to all wells other than those containing background samples, then the plate was incubated for 1 h under standard conditions. The plates were subsequently placed on ice, the cells were washed twice with ice-cold 1× PBS, and 10× trypsin without phenol red was added. After complete trypsinization, the cells were vigorously resuspended in ice-cold 1× PBS containing 2% FBS. Samples were then transferred into test-tubes and kept on ice until their fluorescence could be measured using a flow cytometer (BD FACSCanto II, Allschwil, Switzerland). The excitation/emission wavelengths for daunorubicin and mitoxantrone were 490/565 and 640/670 nm, respectively.

Series [3] relates to MDCKII-par cells. In words: substrate accumulation in control MDCKII-par cells. Format: cell-based, canine. The following applies: hoechst 33342, calcein AM, daunorubicin, mitoxantrone. As for the experimental part:
Cellular accumulation assay with hoechst 33342 and calcein AM was performed as described previously. Briefly, MDCKII-par, MDCKII-ABCB1, MDCKII-ABCG2, and MDCKII-ABCC1 cells were seeded at densities of 5.0 × 10^4, 5.0 × 10^4, 5.5 × 10^4, and 6.0 × 10^4 cells/well, respectively, on a transparent 96-well plate and grown to full confluence for 24 h under standard conditions. The cells were then washed twice with 1 × PBS, after which was added either a dilution of ensartinib in Opti-MEM (1, 5, 10, 25, or 50 µM) or a specific inhibitor to act as a positive control (1 µM LY335979, 1 µM Ko143, or 25 µM MK-571 for ABCB1, ABCG2, or ABCC1, respectively). […] The intracellular levels of the substrates were then determined at 1 min intervals for 30 min using a microplate reader (Infinite M200 Pro, Tecan, Männedorf, Switzerland). Fluorescence was monitored in bottom mode using excitation/emission wavelengths of 350/465 and 485/535 nm for hoechst 33342 and calcein AM, respectively.
The flow-cytometric inhibitory assay with daunorubicin and mitoxantrone was performed with minor modifications as described previously. […] Samples were then transferred into test-tubes and kept on ice until their fluorescence could be measured using a flow cytometer (BD FACSCanto II, Allschwil, Switzerland). […]

Series [4] concerns ABCB1, ABCG2, ABCC1 mRNA. Put plainly: Gene induction study (qRT-PCR), ABC transporter mRNA. To be noted: 0.5 µM ensartinib; 24 and 48 h; Caco-2, LS174T, A549, NCI-H1299 cells. Format: cell-based, human. Here is the method:
Gene induction studies were performed with minor modifications as described recently. Although all gene induction studies involved the use of quantitative real-time reverse transcription PCR (qRT-PCR) to measure mRNA levels, the methods used for specific cell lines varied considerably. Therefore, they are described separately.
For transporter-oriented studies, A549 (24 × 10^4 cells/well), NCI-H1299 (18 × 10^4 cells/well), Caco-2 (50 × 10^4 cells/well), or LS174T (100 × 10^4 cells/well) cells were plated in 12-well plates 24 h before the experiment. Subsequently, the medium was replaced with fresh medium containing 0.5 µM ensartinib, 25 µM rifampicin, or 0.1% DMSO (vehicle control). […] The RNA yield was measured using a NanoDrop ND-1000 spectrophotometer (American Laboratory Trading, East Lyme, CT, USA) while RNA quality and integrity were verified by agarose gel electrophoresis. […] The expression of ABCB1, ABCG2 and ABCC1 was assessed using gb Easy PCR Master Mix and TaqMan qRT-PCR systems in 384-well plates according to the manufacturer´s instructions, amplifying 20 ng of cDNA per reaction. qRT-PCR was performed using QuantStudio 6 (Life Technologies, Carlsbad, CA, USA) with predefined thermal cycling conditions (95 °C for 3 min then 40 repeats of a cycle of 95 °C for 10 s and 60 °C for 20 s). […]

Series [5] in a line: MTT proliferation assay, A431-ABCG2. Type of series: cell-based. The following applies: human, A431-ABCG2 cells, read-out: IC50, sensitivity to ensartinib. As for the experimental part: MTT proliferation assay was performed as described previously.

T1 sequence (P33527 whole entry): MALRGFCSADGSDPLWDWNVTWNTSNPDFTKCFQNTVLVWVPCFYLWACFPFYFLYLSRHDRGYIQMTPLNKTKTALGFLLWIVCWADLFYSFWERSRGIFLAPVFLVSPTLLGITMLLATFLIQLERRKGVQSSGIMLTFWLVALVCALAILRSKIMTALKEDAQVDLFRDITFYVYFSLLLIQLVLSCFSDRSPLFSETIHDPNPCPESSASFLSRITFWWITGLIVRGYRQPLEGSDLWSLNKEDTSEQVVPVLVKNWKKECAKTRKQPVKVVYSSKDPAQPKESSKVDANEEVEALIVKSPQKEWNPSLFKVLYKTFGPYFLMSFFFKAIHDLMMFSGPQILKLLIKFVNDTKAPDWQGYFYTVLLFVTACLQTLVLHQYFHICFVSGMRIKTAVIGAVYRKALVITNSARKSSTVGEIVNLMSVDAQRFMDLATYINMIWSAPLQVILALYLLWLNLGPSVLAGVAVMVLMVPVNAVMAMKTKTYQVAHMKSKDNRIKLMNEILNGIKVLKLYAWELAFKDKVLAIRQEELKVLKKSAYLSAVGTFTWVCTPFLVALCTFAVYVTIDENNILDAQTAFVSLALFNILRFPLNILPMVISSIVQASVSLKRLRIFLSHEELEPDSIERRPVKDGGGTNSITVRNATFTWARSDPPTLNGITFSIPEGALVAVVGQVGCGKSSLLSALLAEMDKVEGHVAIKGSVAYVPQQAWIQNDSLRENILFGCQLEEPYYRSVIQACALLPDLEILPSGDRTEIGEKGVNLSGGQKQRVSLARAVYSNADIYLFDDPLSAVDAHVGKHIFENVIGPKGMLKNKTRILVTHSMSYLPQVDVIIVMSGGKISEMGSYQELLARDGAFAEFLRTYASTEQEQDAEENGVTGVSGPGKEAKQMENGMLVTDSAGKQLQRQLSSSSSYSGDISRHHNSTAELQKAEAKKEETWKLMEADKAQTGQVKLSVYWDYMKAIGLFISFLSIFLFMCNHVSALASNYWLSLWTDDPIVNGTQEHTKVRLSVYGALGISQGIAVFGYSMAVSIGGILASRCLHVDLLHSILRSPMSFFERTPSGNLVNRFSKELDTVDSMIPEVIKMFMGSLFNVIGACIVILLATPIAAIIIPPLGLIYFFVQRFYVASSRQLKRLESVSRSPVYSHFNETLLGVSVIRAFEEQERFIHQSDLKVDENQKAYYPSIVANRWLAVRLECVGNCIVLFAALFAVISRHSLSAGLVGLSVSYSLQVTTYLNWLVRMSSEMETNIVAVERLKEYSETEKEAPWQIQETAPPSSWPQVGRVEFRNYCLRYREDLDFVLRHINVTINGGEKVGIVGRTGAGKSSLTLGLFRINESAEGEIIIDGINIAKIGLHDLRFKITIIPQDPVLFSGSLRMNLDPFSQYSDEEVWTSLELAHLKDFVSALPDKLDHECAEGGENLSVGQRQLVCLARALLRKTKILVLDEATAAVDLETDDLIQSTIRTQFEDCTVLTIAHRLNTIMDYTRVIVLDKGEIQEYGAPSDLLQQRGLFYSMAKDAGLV

As to `C[C@@H]1CN(C(=O)c2ccc(NC(=O)c3cc(O[C@H](C)c4c(Cl)ccc(F)c4Cl)c(N)nn3)cc2)C[C@H](C)N1` [ensartinib, Ensartinib], the 50% inhibitory concentration (IC50) was 27.4 µM in series [1] and > 50 µM in series [2]. For the same molecule, the “effect on the accumulation of any substrate in control cells” value in series [3] is “no significant effect”. Further, in series [4], the “change in mRNA levels of ABCB1, ABCG2, ABCC1” value is “did not increase or reduce the mRNA levels of ABCB1, ABCG2, or ABCC1 by more than 100% or 50%”. Further, the concentration for half-maximal inhibition (IC50) at 48 h in series [5] was determined as 2.26 µM.
